Converted amounts (≈) assume the structure as drawn. “And” between values parts separate entries of the source, which are not always exact repeats. Identical values can stand only once.
Experiments:
HSV-1 (strain 377, TK+) = test: Antiviral activity against HSV-1; type: cell-based; conditions: for VR / EC50: HSV-1, range of tests; for EC50: Human alphaherpesvirus 1, read-out: Mic50
Description: (§1) D-2'-CdG and L-2'-CdG were tested, alongside D,L-2'-CdG, against both HSV-1 (strain 377, TK+; obtained from Dr. Earl Kern, University of Alabama) and HSV-2 (strain MS, TK+; also obtained from Dr. Earl Kern). In these tests (Table 5), Ara-A and acyclovir (ACV) were the positive control drugs. In four tests vs. HSV-1, the antiviral activity (VR) and potency (MIC50) of D-2'-CdG were approximately the same as those of racemic 2-CdG. L-2'-CdG was only modestly active.

[1] = test system: H.Ep.-2 cells infected with HSV-1; test: Metabolism in HSV-1-infected H.Ep.-2 cells, SAX HPLC; type: cell-based, human; conditions: H.Ep.-2 cells infected with HSV-1, 8 hours, Fig. 4
Description: The in vivo metabolism of D- and L-2'CdG was also measured in HSV-[TK+]-infected, HSV-[TK-]-infected and mock infected H.Ep.-2 cells (human epidermal carcinoma cells, ATCC CCL23). Uninfected and infected cells were incubated in fresh medium containing 2 µCi/ml of either [^3H]-D- or L-2'CdG, as described above, to measure the metabolism of these enantiomers. After 8 hours the cells were harvested and washed free of medium with PBS, and extracts were prepared with cold 0.5 N perchloric acid for 0.5 hr. The extract was then neutralized with potassium bicarbonate and the resulting precipitate was removed by centrifugation. The supernatant was lyophilized to dryness and the acid-soluble metabolites were separated using SAX HPLC as described above.
(§2) While these findings are similar to those obtained with the isolated viral kinase, they differ from the resulted with the isolated enzyme in that relatively more di- and triphosphate were formed from L-2'CdG.

CCRF-CEM cells = test: Phosphorylation in uninfected CCRF-CEM cells, effects of dCyd and mycophenolic acid; type: cell-based; conditions: for increase in the phosphates in the presence of mycophenolic acid / reduction of the amount of phosphates in the presence of dCyd: Fig. 6; for reduction of the amount of phosphates in the presence of dCyd: calculated from the radioactivity in the peaks
Description: as §2
Identity of the cellular enzyme(s) responsible for the phosphorylation of the enantiomers of 2'CdG. […] 36:291, 1989). To determine if dCyd kinase was involved, studies were carried out in which cells were indubated with D- or L-2'CdG and dCyd, and the formation of phosphates was monitored by HPLC. […] The presence of mycophenolic acid produced an increase in the phosphates of D- or L-2'CdG of 2.5-fold and 1.4-fold, respectively.

HSV-2 (strain MS, TK+) = test: Antiviral activity against HSV-2; type: cell-based; conditions: HSV-2
Description: as §1
These compounds were tested against HSV-2(TK^+). The VR of ACV was somewhat higher than the VR values of D-2'-CdG and D,L-2'-CdG, but the values of MIC50 of the two forms of 2'-CdG were lower. In addition, experiments comparing the antiviral activity D-2'-CdG with acyclovir against HSV-1 in human foreskin fibroblasts have shown an even greater potency, in favor of D-2'-CdG.

HBV = HBV DNA production and replication in 2.2.15 cell cultures; type: cell-based, Hepatitis B virus (HBV); conditions: for anti-HBV activity (in words): 50 ng/ml to 5 ug/ml, 2.2.15 cells; for INTRACELLULAR HBV DNA INTEG. / INTRACELLULAR HBV DNA MONO. / INTRACELLULAR HBV DNA RI: 24 hours following 10th day of treatment; for HBV DNA IN CULTURE MEDIUM DAY 0: day 0 of treatment
Description: 2'-CdG was tested at three concentrations (50 ng/ml, 500 ng/ml, and 5 ug/ml) against the HBV-producing, human liver cell line, 2.2.15 (Sells et al., J. Virol. 62:2836, 1989). A racemic (D,L) preparation, as well as the purified D and L isomers were tested. For these analyses compounds were tested in duplicate at all concentrations. Ara-AMP and ddG (2'3'-dideoxyguanosine) were used as HBV inhibitory control compounds. […] The nucleoside analog, ddG was used as an additional control compound since ddG has activity against duck hepatitis B virus in chronically infected Peking ducks (Lee et al., Antimicrob. Agents Chemother. 33:336, 1989) and 2'-CdG is also a deoxyguanosine analog.
2.2.15 cells were seeded in 6 well culture plates and grown to confluence over a 10 day period in medium with 5% FBS. Test compounds were then added daily for a continuous 10 day period in medium with 1% dialyzed FBS. […] Compounds were tested, in duplicate cultures, at 3 concentrations covering a 100-fold range. Culture medium (changed daily during the treatment period) was collected and stored for analysis of extracellular (virion) HBV DNA from days 0, 3, 6, and 10 of the treatment period. This allowed for an analysis of the level of HBV virion production during discrete 24 hour intervals and reduced the potential for the buildup of toxic metabolites derived from the test compounds. Treated cells were lysed following the 10th day of treatment for the analysis of intracellular HBV genomic forms. HBV DNA was analyzed in a quantitative manner for (i) overall levels (both extracellular and intracellular DNA) and (ii) the relative rate of HBV replication (intracellular DNA only).
HBV DNA levels were measured by comparison to known amounts of HBV DNA standards applied to every nitrocellulose filter (gel or slot blot) using an AMBIS Beta Scanner. Standard curves, generated by multiple analyses, were used to correlate CPM measurements with relative levels of target HBV DNA. The levels of HBV DNA in each of three classes of intracellular viral genomic forms were individually quantitated: integrated HBV DNA, episomal monomeric genomes and HBV DNA replication intermediates (RI). Integrated HBV DNA was used to normalize the relative amounts of DNA in each lane because the levels of this class of HBV DNA would be expected to remain constant on a per cell basis. The levels of the monomeric HBV genomes and RI were used as an indicator of the relative level of HBV replication.

## Nc1nc2c(ncn2[C@@H]2C[C@H](CO)[C@@H](O)C2)c(=O)[nH]1 [D-2'-CdG, [1R,3S,4R-(1α,3β,4α)]-D-2-Amino-1,9-dihydro-9-[3-hydroxy-4-(hydroxymethyl)cyclopentyl]-6H-purin-6-one]
HSV-1 (strain 377, TK+)
  VR: 4.8-6.3
  EC50: 0.1 to 0.3 µg/mL (≈ 0.377 to 1.13 µM)
HSV-1 (strain 377, TK+); more potent than ACV
  potency relative to ACV: 5-10 times
[1]
  principal soluble metabolite: the triphosphate
CCRF-CEM cells
  increase in the phosphates in the presence of mycophenolic acid: 2.5 fold
  reduction of the amount of phosphates in the presence of dCyd: 80-90%
CCRF-CEM cells; uninfected CEM cells, Fig. 5
  predominant metabolite: the triphosphate
HSV-2 (strain MS, TK+)
  VR: 3.8
HSV-2 (strain MS, TK+); Human alphaherpesvirus 2, read-out: Mic50
  EC50: 0.7 µg/mL (≈ 2.64 µM)
HBV
  anti-HBV activity (in words): as active an inhibitor of HBV replication as the racemic mixture
HBV; 50ng/ml, listed as D, 2CdG
  INTRACELLULAR HBV DNA INTEG.: 1.6 PG/UG CELL DNA and 1.3 PG/UG CELL DNA
  INTRACELLULAR HBV DNA MONO.: 1.3 PG/UG CELL DNA and 2.1 PG/UG CELL DNA
  INTRACELLULAR HBV DNA RI: 16 PG/UG CELL DNA and 20 PG/UG CELL DNA
  HBV DNA IN CULTURE MEDIUM DAY 0: 100 pg/mL and 77 pg/mL
  HBV DNA IN CULTURE MEDIUM DAY 3: 110 pg/mL and 70 pg/mL
  HBV DNA IN CULTURE MEDIUM DAY 6: 38 pg/mL and 40 pg/mL
HBV; 500ng/ml
  INTRACELLULAR HBV DNA RI: 1 PG/UG CELL DNA
HBV; 500ng/ml, listed as D, 2-CdG
  INTRACELLULAR HBV DNA INTEG.: 1.0 PG/UG CELL DNA and 1.6 PG/UG CELL DNA
  INTRACELLULAR HBV DNA MONO.: 1.9 PG/UG CELL DNA and 1.8 PG/UG CELL DNA
  HBV DNA IN CULTURE MEDIUM DAY 0: 80 pg/mL and 90 pg/mL
  HBV DNA IN CULTURE MEDIUM DAY 3: 36 pg/mL and 43 pg/mL
  HBV DNA IN CULTURE MEDIUM DAY 6: 15 pg/mL and 14 pg/mL
HBV; 5 ug/ml
  INTRACELLULAR HBV DNA MONO.: 2.0 PG/UG CELL DNA
  HBV DNA IN CULTURE MEDIUM DAY 10: 0 pg/mL
HBV; 5 ug/ml, listed as D, 2-CdG
  HBV DNA IN CULTURE MEDIUM DAY 0: 100 pg/mL and 120 pg/mL
  HBV DNA IN CULTURE MEDIUM DAY 3: 18 pg/mL and 21 pg/mL
  HBV DNA IN CULTURE MEDIUM DAY 6: 3 pg/mL and 6 pg/mL

## Nc1nc2c(ncn2[C@H]2C[C@@H](CO)[C@H](O)C2)c(=O)[nH]1 [L-2'-CdG, [1S,3R,4S-(1α,3β,4α)]-L-2-Amino-1,9-dihydro-9-[3-hydroxy-4-(hydroxymethyl)cyclopentyl]-6H-purin-6-one]
HSV-1 (strain 377, TK+)
  VR: 0.8-2.4
  EC50: 39 to 257 µg/mL (≈ 147 to 969 µM)
[1]
  principal soluble metabolite: the monophosphate
CCRF-CEM cells
  increase in the phosphates in the presence of mycophenolic acid: 1.4 fold
  reduction of the amount of phosphates in the presence of dCyd: 80-90%
CCRF-CEM cells; uninfected CEM cells, Fig. 5
  predominant metabolite: the monophosphate
  total amount of phosphates formed, relative to D-2'CdG: about twice that formed from D-2'CdG
HSV-2 (strain MS, TK+)
  VR: 0
HBV
  anti-HBV activity (in words): did not exhibit any significant anti-HBV activity
HBV; 50ng/ml, listed as L, 2-CdG
  INTRACELLULAR HBV DNA INTEG.: 1.3 PG/UG CELL DNA and 0.8 PG/UG CELL DNA
  INTRACELLULAR HBV DNA MONO.: 1.4 PG/UG CELL DNA and 1.1 PG/UG CELL DNA
  INTRACELLULAR HBV DNA RI: 90 PG/UG CELL DNA and 76 PG/UG CELL DNA
  HBV DNA IN CULTURE MEDIUM DAY 0: 48 pg/mL and 67 pg/mL
  HBV DNA IN CULTURE MEDIUM DAY 3: 47 pg/mL and 83 pg/mL
  HBV DNA IN CULTURE MEDIUM DAY 6: 90 pg/mL and 63 pg/mL
  HBV DNA IN CULTURE MEDIUM DAY 10: 90 pg/mL and 61 pg/mL
HBV; 500ng/ml
  INTRACELLULAR HBV DNA MONO.: 1.9 PG/UG CELL DNA
HBV; 500ng/ml, listed as L, 2-CdG
  INTRACELLULAR HBV DNA INTEG.: 1.4 PG/UG CELL DNA and 1.5 PG/UG CELL DNA
  INTRACELLULAR HBV DNA RI: 82 PG/UG CELL DNA and 99 PG/UG CELL DNA
  HBV DNA IN CULTURE MEDIUM DAY 0: 90 pg/mL and 110 pg/mL
  HBV DNA IN CULTURE MEDIUM DAY 3: 63 pg/mL and 83 pg/mL
  HBV DNA IN CULTURE MEDIUM DAY 6: 78 pg/mL and 56 pg/mL
  HBV DNA IN CULTURE MEDIUM DAY 10: 97 pg/mL and 91 pg/mL
HBV; 5 ug/ml, listed as L, 2-CdG
  INTRACELLULAR HBV DNA INTEG.: 1.5 PG/UG CELL DNA and 0.9 PG/UG CELL DNA
  INTRACELLULAR HBV DNA MONO.: 2.0 PG/UG CELL DNA and 1.1 PG/UG CELL DNA
  INTRACELLULAR HBV DNA RI: 97 PG/UG CELL DNA and 86 PG/UG CELL DNA
  HBV DNA IN CULTURE MEDIUM DAY 0: 50 pg/mL and 88 pg/mL
  HBV DNA IN CULTURE MEDIUM DAY 3: 67 pg/mL and 110 pg/mL
  HBV DNA IN CULTURE MEDIUM DAY 6: 77 pg/mL and 120 pg/mL
  HBV DNA IN CULTURE MEDIUM DAY 10: 90 pg/mL and 120 pg/mL
